Test results: patent US5624923A, “Tricyclic diazepine vasopressin antagonists and oxytocin antagonists” (priority 1995, dated 1997)

How the values were obtained:
[1] = target: T1, Rat Kidney Medullary V2 Receptors (Rattus norvegicus, UniProt Q00788); experiment: Binding Assay to Rat Kidney Medullary V2 Receptors; settings: for IC50: rat kidney medulla membranes, read-out: V2 IC50; for inhibition at 10 µM: rat
T1 construct: Medullary tissues from rat kidneys are dissected out; from tissue; host or cells: rat kidney medulla membranes
Summary of the method: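 IC50 derived from competition curves; bound tritium counted by liquid scintillation after filtration. Rat medullary kidney membranes (Tris-HCl pH 7.4, BSA, PMSF) were incubated 120 min to equilibrium with radioligand and test compound (added in 50% DMSO). Nonspecific binding: 1.0 μM unlabeled ligand.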

oxytocin receptors = target: T2, oxytocin receptors (Rattus norvegicus, UniProt P70536); experiment: Oxytocin Receptor Binding; settings: for IC50: 1.0 nM [3H]oxytocin
T2 construct: The uteri are dissected out, cleaned of fat and connective tissues; from tissue; host or cells: uterus of DES-treated female Sprague-Dawley rats
T2 sequence (P70536 1-388): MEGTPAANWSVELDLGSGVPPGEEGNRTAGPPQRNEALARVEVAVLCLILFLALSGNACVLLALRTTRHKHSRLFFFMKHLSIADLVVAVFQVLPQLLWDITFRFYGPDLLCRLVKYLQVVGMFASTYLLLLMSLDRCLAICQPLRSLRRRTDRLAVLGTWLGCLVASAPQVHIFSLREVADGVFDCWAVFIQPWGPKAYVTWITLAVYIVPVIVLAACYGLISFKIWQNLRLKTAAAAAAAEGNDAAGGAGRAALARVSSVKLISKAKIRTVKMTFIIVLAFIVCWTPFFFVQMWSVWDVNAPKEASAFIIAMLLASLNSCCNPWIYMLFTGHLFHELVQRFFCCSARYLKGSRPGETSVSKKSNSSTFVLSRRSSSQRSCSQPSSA
Summary of the method: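 IC50 is the concentration displacing 50% of 1.0 nM [3H]OT, incubated 60 min at 22 °C in pH 7.4 Tris/MgCl2 buffer plus protease inhibitors, then filtered. Receptor source: uterine membranes from rats given 0.3 mg/kg DES i.m. 18 h earlier. 1.0 uM cold OT defined non-specific binding.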

T1 sequence (Q00788 whole entry): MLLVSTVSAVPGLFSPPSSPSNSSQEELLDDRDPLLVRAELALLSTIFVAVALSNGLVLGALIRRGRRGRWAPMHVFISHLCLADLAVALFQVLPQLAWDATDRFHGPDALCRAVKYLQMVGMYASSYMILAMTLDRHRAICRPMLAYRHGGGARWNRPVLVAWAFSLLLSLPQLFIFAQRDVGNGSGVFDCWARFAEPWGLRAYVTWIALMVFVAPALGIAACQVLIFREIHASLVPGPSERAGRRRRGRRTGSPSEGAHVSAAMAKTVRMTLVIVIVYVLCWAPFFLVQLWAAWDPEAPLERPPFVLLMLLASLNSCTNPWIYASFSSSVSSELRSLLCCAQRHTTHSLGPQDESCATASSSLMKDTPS

| IC50 [1] [nM] | IC50 (oxytocin receptors) [nM] | inhibition at 10 µM (oxytocin receptors; [3H]oxytocin) [%] | inhibition at 10 µM [1] [%] | inhibition at 2.5 µM (oxytocin receptors; dose 2.5 μM, [3H]oxytocin) [%] | inhibition at 1.25 µM (oxytocin receptors; [3H]oxytocin) [%] | SMILES |
| --- | --- | --- | --- | --- | --- | --- |
| 22 | 8000 | 56 | – | – | – | CC(=O)OC(C(=O)Nc1ccc(C(=O)N2Cc3cccn3Cc3ccccc32)cc1)c1ccccc1 (stereo not drawn) [Example 587, α-(Acetyloxy)-N-[4-(5H-pyrrolo[2,1-c][1,4]benzodiazepin-10(11H)-ylcarbonyl)phenyl]benzeneacetamide] |
| 16 | 4000 | 64 | – | – | – | Cc1ccccc1C(=O)Nc1ccc(C(=O)N2Cc3ccnn3Cc3ccccc32)cc1 [Example 210, N-[4-(4H-Pyrazolo[5,1-c][1,4]benzodiazepin-5(10H)-ylcarbonyl)phenyl]-2-methylbenzamide] |
| 83 | 4700 | 70 | – | – | – | NC(=O)CNC(C(=O)Nc1ccc(C(=O)N2Cc3cccn3Cc3ccccc32)cc1)c1ccccc1 (stereo not shown) [Example 585] |
| 13 | 2200 | 86 | – | – | – | Cc1cccc(NC(=O)c2ccc(C(=O)N3Cc4cccn4Cc4ccccc43)cc2)c1C [Example 485, N-(2,3-Dimethylphenyl)-4-(5H-pyrrolo[2,1-c][1,4]benzodiazepin-10(11H)-ylcarbonyl)benzamide] |
| 14 | 350 | 92 | – | – | – | O=C(Nc1ccc(C(=O)N2Cc3cccn3Cc3ccccc32)cc1)c1cc(Cl)cc(Cl)c1Cl [Example 599, N-[4-(5H-Pyrrolo[2,1-c][1,4]benzodiazepin-10(11H)-ylcarbonyl)phenyl]-2,3,5-trichlorobenzamide] |
| – | 280 | 98 | – | – | – | Cc1cccc(C(=O)Nc2ccc(C(=O)N3Cc4cccn4Cc4ccccc43)c(Cl)c2)c1C [Example 525, N-[4-(5H-pyrrolo[2,1-c][1,4]benzodiazepin-10(11H)-ylcarbonyl]-3-chlorophenyl]-2,3-dimethylbenzamide] |
| 0.7 | 60 | 87 | – | – | – | Cc1ccccc1CC(=O)Nc1ccc(C(=O)N2Cc3cccn3Cc3ccccc32)cc1 [Example 93, N-[4(5H-Pyrrolo[2,1-c][1,4]benzodiazepin-10(11H)-ylcarbonyl)phenyl]-2-methylbenzeneacetamide] |
| – | – | 44 | 82 | – | – | COC(=O)c1ccc(C(=O)Nc2ccc(C(=O)N3Cc4cccn4Cc4ccccc43)cc2)cc1 [Example 489] |
| 3.7 | 310 | 99 | – | – | – | Cc1ccccc1C(=O)Nc1ccc(C(=O)N2Cc3cccn3Cc3ccccc32)cc1Cl [Example 530, N-[4-(5H-Pyrrolo[2,1-c][1,4]benzodiazepin-10(11H)-ylcarbonyl)-2-chlorophenyl]-2-methylbenzamide] |
| – | – | 0 | 22 | – | – | Cc1ccccc1C(=O)Nc1c(C)cc(C(=O)N2Cc3cccn3Cc3ccccc32)cc1C [Example 472] |
| 110 | – | 31 | – | – | – | O=C(Nc1ccc(C(=O)N2Cc3cccn3-c3ccccc32)cc1)c1ccc(Cl)cc1Cl [Example 17, N-[4-(pyrrolo(1,2-a]quinoxalin-5(4H)-ylcarbonyl)phenyl]-2,4-dichloro-benzamide] |
| – | – | 19 | 23 | – | – | O=C(Nc1ccc(C(=O)N2Cc3ccc(C(=O)C(F)(F)F)n3Cc3ccccc32)cc1)c1ccccc1C(F)(F)F [Example 594] |
| 14 | 660 | 98 | – | – | – | O=C(Nc1ccc(C(=O)N2Cc3cccn3Cc3ccccc32)cc1)c1cc(Cl)ccc1Cl [Example 4, N-[4-(5H-pyrrolo[2,1-c][1,4]benzodiazepin-10(11H)-ylcarbonyl)phenyl]-2,5-dichlorobenzamide] |
| 5 | 1200 | 87 | – | – | – | O=C(Nc1ccc(C(=O)N2Cc3ccnn3Cc3ccccc32)cc1)c1ccc(Cl)cc1Cl [Example 217, N-[4-(4H-Pyrazolo[5,1-c][1,4]benzo-diazepin-5(10H)-ylcarbonyl)phenyl]-2,4-dichlorobenzamide] |
| 42 | 1100 | 82 | – | – | – | COC(=O)c1ccc2n1Cc1ccccc1N(C(=O)c1ccc(NC(=O)c3ccc(Cl)cc3Cl)cc1)C2 [Example 593] |
| – | 1170 | 90 | – | – | – | O=C(Nc1ccc(C(=O)N2Cc3cccn3Cc3ccccc32)c(Cl)c1)c1ccccc1C(F)(F)F [Example 528, N-[4-(5H-pyrrolo[2,1-c][1,4]benzodiazepin-10(11H)-ylcarbonyl]-3-chlorophenyl]-2-(trifluoromethyl)benzamide] |
| 4.5 | 220 | – | – | 92 | – | Cc1ccccc1C(=O)Nc1ccc(C(=O)N2Cc3cccn3Cc3ccccc32)c(Cl)c1 [Example 470] |
| – | 150 | 98 | – | – | – | O=C(Nc1ccc(C(=O)N2Cc3cccn3Cc3ccccc32)cc1)c1cc([N+](=O)[O-])ccc1Cl [Example 480, N-[4-(5H-pyrrolo[2,1-c][1,4]benzodiazepin-10(11H)-ylcarbonyl)phenyl]-2-chloro-5-nitrobenzamide] |
| 5 | 130 | 97 | – | – | – | O=C(Nc1ccc(C(=O)N2Cc3cccn3Cc3ccccc32)cc1)c1ccccc1Cl [Example 7] |
| 3 | 350 | 92 | – | – | – | O=C(Nc1ccc(C(=O)N2Cc3cccn3Cc3ccccc32)cc1)c1ccc(Cl)cc1Cl [Example 6, N-[4-(5H-pyrrolo[2,1-c][1,4]benzodiazepin-10(11H)-ylcarbonyl)phenyl]-2,4-dichlorobenzamide] |
| 69 | 820 | 94 | – | – | – | O=C(Nc1ccc(C(=O)N2Cc3cccn3Cc3ccccc32)cc1)c1sccc1Cl [Example 476, N-[4-(5H-pyrrolo[2,1-c][1,4]benzodiazepin-10(11H)-ylcarbonyl)phenyl]-3-chlorothiophene-2-carboxamide] |
| 5.3 | 200 | 99 | – | – | – | O=C(Nc1ccc(C(=O)N2Cc3ccc(CO)n3Cc3ccccc32)cc1)c1ccc(Cl)cc1Cl [Example 581, 2,4-Dichloro-N-[4-[[3-(hydroxymethyl)-5H-pyrrolo[2,1-c][1,4]benzodiazepin-10(11H)-yl]carbonyl]phenyl]benzamide] |
| – | 29 | – | – | – | 97 | COc1cc(C(=O)N2Cc3cccn3Cc3ccccc32)ccc1NC(=O)c1ccccc1C [Example 477, N-[4-(5H-pyrrolo[2,1-c][1,4]benzodiazepin-10(11H)-ylcarbonyl)-2-methoxy-phenyl]-2-methylbenzamide] |
| 5 | 300 | 99 | – | – | – | CN(C)CN(C(=O)c1ccc(Cl)cc1Cl)c1ccc(C(=O)N2Cc3cccn3Cc3ccccc32)cc1 [Example 490, N-[(Dimethylamino)methyl]-N-[4-(5H-pyrrolo[2,1-c][1,4]benzodiazepin-10(11H)-ylcarbonyl)phenyl]-2,4-dichlorobenzamide] |
| 8 | 150 | 76 | – | – | – | COc1cc(C(=O)N2Cc3cccn3Cc3ccccc32)ccc1NC(=O)c1cccc(F)c1C [Example 479, N-[4-(5H-pyrrolo[2,1-c][1,4]benzodiazepin-10(11H)-ylcarbonyl)-2-methoxy-phenyl]-3-fluoro-2-methylbenzamide] |
| 8.3 | 350 | 99 | – | – | – | O=C(Nc1ccc(C(=O)N2Cc3cccn3Cc3ccccc32)c(Cl)c1)c1ccc(Cl)cc1Cl [Example 471] |
| – | 1000 | 95 | – | – | – | O=C(Nc1ccc(C(=O)N2Cc3cccn3Cc3sccc32)cc1)c1ccc(Cl)cc1Cl [Example 274, N-(4-(5H-pyrrolo[1,2-a]thieno-[3,2-e][1,4]diazepin-4(10H)-ylcarbonyl)phenyl]-2,4-dichloro-benzamide] |
| – | 40 | – | – | – | 97 | COc1cc(C(=O)N2Cc3cccn3Cc3ccccc32)ccc1NC(=O)c1ccc(Cl)cc1Cl [Example 478, N-[4-(5H-pyrrolo[2,1-c][1,4]benzodiazepin-10(11H)-ylcarbonyl)-2-methoxy-phenyl]-2,4-dichlorobenzamide] |
| – | 450 | 92 | – | – | – | O=C(Nc1ccc(C(=O)N2Cc3cccn3Cc3ccccc32)c(Cl)c1)c1ccc(F)cc1Cl [Example 527, N-[4-(5H-pyrrolo[2,1-c][1,4]benzodiazepin-10(11H)-ylcarbonyl]-3-chlorophenyl]-4-fluoro-2-chlorobenzamide] |

| SMILES | IC50 [1] [nM] | IC50 (oxytocin receptors) [nM] | inhibition at 10 µM (oxytocin receptors; [3H]oxytocin) [%] | inhibition at 10 µM [1] [%] | inhibition at 2.5 µM (oxytocin receptors; dose 2.5 μM, [3H]oxytocin) [%] | inhibition at 1.25 µM (oxytocin receptors; [3H]oxytocin) [%] |
| --- | --- | --- | --- | --- | --- | --- |
| Cc1ccc(F)cc1C(=O)Nc1ccc(C(=O)N2Cc3cccn3Cc3ccccc32)c(Cl)c1 [Example 482, N-[4-(5H-pyrrolo[2,1-c][1,4]benzodiazepin-10(11H)-ylcarbony)-3-chlorophenyl]-5-fluoro-2-methylbenzamide] | 2.3 | 126 | 97 | – | – | – |
